Each compound was assayed against T1, human MAGL (His-hMAGL) (Homo sapiens, UniProt Q99685) (assay: Measurement of MAGL inhibitory activity by mass spectrometry). Conditions: 10 μM test compound; substrate 2-arachidonylglycerol, arachidonic acid by RapidFire-mass spectrometry.
T1 construct: made in house; host or cells: Escherichia coli BL21(DE3)
T1 sequence (Q99685 1-303): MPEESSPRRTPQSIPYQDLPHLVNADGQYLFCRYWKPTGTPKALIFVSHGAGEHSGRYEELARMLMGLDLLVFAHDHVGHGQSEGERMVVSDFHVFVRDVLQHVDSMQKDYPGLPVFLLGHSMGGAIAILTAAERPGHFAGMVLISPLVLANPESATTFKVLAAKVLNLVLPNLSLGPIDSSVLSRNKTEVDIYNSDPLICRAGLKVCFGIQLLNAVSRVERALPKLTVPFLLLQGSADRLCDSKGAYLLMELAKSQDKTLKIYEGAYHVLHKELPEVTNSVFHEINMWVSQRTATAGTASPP
Assay type: biochemical
Description: Thereafter, to each well was added 150 μM 2-arachidonylglycerol (Tocris Bioscience) by 5 μL, and the mixture was incubated at room temperature for 10 min. Then, 2% formic acid (Wako Pure Chemical Industries, Ltd.) was added by 10 μL to discontinue the reaction. Furthermore, acetonitrile (50 μL) containing 3 μM arachidonic acid-d8 (Cayman Chemical Company) was added and the mixture was stirred. The amount of arachidonic acid in the obtained enzyme reaction mixture was calculated by measuring by RapidFire-mass spectrometry and correcting by the amount of arachidonic acid-d8. High Throughput online solid phase extraction was performed using RapidFire 300TM system (Agilent Technologies, Inc.). […] The injection needle was washed with ultrapure water (500 millisecond) and acetonitrile (500 millisecond) to minimize carry-over. […] The RapidFire300 system was controlled by RapidFire UI software version 3.6 (Agilent Technologies, Inc.). The mass spectrometry of the resultant product was performed using […] triple quadrupole mass spectrometer (AB SCIEX) equipped with an electrospray ion sauce (Turbolon SprayTM) in a negative selected reaction monitoring (SRM) mode. The conditions of SRM are shown below. The parameters of the instrument were optimized as follows: capillary temperature 600° C., ion spray voltage -4.5 kV, collision gas 8, curtain gas 15 psi, ion source gas 1 60 psi, ion source gas 2 60 psi. The mass spectrometer was controlled by AnalystTM software version 1.5.1 (AB SCIEX). The peak area integration was analyzed using RapidFire integrator software version 3.6 (Agilent Technologies, Inc.). MAGL inhibitory rate (%) was calculated according to the following calculation formula.

| inhibition at 10 µM [%] | SMILES |
| --- | --- |
| 100 | CCc1ccccc1-c1cccc(N2CC(N3CCN(C(=O)c4nccs4)CC3)CC2=O)c1 (stereo not shown) [Example 142, 1-(2′-ethylbiphenyl-3-yl)-4-(4-(1,3-thiazol-2-ylcarbonyl)piperazin-1-yl)pyrrolidin-2-one] |
| 102 | Cc1cccc(-c2cccc(N3CC(N4CCN(C(=O)c5nccs5)CC4)CC3=O)c2)c1C (stereo not shown) [Example 143, 1-(2′,3′-dirnethylbiphenyl-3-yl)-4-(4-(1,3-thiazol-2-ylcarbonyl)piperazin-1-yl)pyrrolidin-2-one] |
| 101 | Cc1ccc(C)c(-c2cccc(N3CC(N4CCN(C(=O)c5nccs5)CC4)CC3=O)c2)c1 (stereo not shown) [Example 144, 1-(2′,5′-dirnethylbiphenyl-3-yl)-4-(4-(1,3-thiazol-2-ylcarbonyl)piperazin-1-yl)pyrrolidin-2-one] |
| 102 | O=C(c1nccs1)N1CCN(C2CC(=O)N(c3cccc(-c4c(F)cccc4F)c3)C2)CC1 (stereo not shown) [Example 145, 1-(2′,6′-Difluorobiphenyl-3-yl)-4-(4-(1,3-thiazol-2-ylcarbonyl)piperazin-1-yl)pyrrolidin-2-one] |
| 100 | O=C(c1nccs1)N1CCN(C2CC(=O)N(c3cccc(-c4c(Cl)cccc4Cl)c3)C2)CC1 (stereo not shown) [Example 146, 1-(2′,6′-dichlorobiphenyl-3-yl)-4-(4-(1,3-thiazol-2-ylcarbonyl)piperazin-1-yl)pyrrolidin-2-one] |
| 95 | O=C(c1nccs1)N1CCN(C2CC(=O)N(c3cccc(OC(F)(F)F)c3)C2)CC1 (stereo not shown) [Example 148, 4-(4-(1,3-thiazol-2-ylcarbonyl)piperazin-1-yl)-1-(3-(trifluoromethoxy)phenyl)pyrrolidin-2-one] |
| 96 | Cc1ccc(-c2cccc(N3CC(N4CCN(C(=O)c5nccs5)CC4)CC3=O)c2)nc1 (stereo not shown) [Example 149, 1-(3-(5-Methylpyridin-2-yl)phenyl)-4-(4-(1,3-thiazol-2-ylcarbonyl)piperazin-1-yl)pyrrolidin-2-one] |
| 96 | Cc1cccc(-c2cccc(N3CC(N4CCN(C(=O)c5nccs5)CC4)CC3=O)c2)n1 (stereo not shown) [Example 150, 1-(3-(6-Methylpyridin-2-yl)phenyl)-4-(4-(1,3-thiazol-2-ylcarbonyl)piperazin-1-yl)pyrrolidin-2-one] |
| 99 | O=C(c1nccs1)N1CCN(C2CC(=O)N(c3cccc(-c4ncccc4Cl)c3)C2)CC1 (stereo not shown) [Example 151, 1-(3-(3-chloropyridin-2-yl)phenyl)-4-(4-(1,3-thiazol-2-ylcarbonyl)piperazin-1-yl)pyrrolidin-2-one] |
| 99 | Cc1ccnc(-c2cccc(N3CC(N4CCN(C(=O)c5nccs5)CC4)CC3=O)c2)c1 (stereo not shown) [Example 152, 1-(3-(4-rnethylpyridin-2-yl)phenyl)-4-(4-(1,3-thiazol-2-ylcarbonyl)piperazin-1-yl)pyrrolidin-2-one] |
| 101 | Cc1cccc(C#N)c1-c1cccc(N2CC(N3CCN(C(=O)c4nccs4)CC3)CC2=O)c1 (stereo not shown) [Example 154, 6-methyl-3′-(2-oxo-4-(4-(1,3-thiazol-2-ylcarbonyl)piperazin-1-yl)pyrrolidin-1-yl)biphenyl-2-carbonitrile] |
| 99 | Cc1noc(C)c1-c1cccc(N2CC(N3CCN(C(=O)c4nccs4)CC3)CC2=O)c1 (stereo not shown) [Example 155, 1-(3-(3,5-dimethyl-1,2-oxazol-4-yl)phenyl)-4-(4-(1,3-thiazol-2-ylcarbonyl)piperazin-1-yl)pyrrolidin-2-one] |
| 100 | CCn1nccc1-c1cccc(N2CC(N3CCN(C(=O)c4nccs4)CC3)CC2=O)c1 (stereo not shown) [Example 156, 1-(3-(1-ethyl-1H-pyrazol-5-yl)phenyl)-4-(4-(1,3-thiazol-2-ylcarbonyl)piperazin-1-yl)pyrrolidin-2-one] |
| 99 | Cc1cc(-c2cccc(N3CC(N4CCN(C(=O)c5nccs5)CC4)CC3=O)c2)n(C)n1 (stereo not shown) [Example 157, 1-(3-(1,3-dimethyl-1H-pyrazol-5-yl)phenyl)-4-(4-(1,3-thiazol-2-ylcarbonyl)piperazin-1-yl)pyrrolidin-2-one] |
| 99 | Cn1nc(C(F)(F)F)cc1-c1cccc(N2CC(N3CCN(C(=O)c4nccs4)CC3)CC2=O)c1 (stereo not shown) [Example 158, 1-(3-(1-methyl-3-(trifluoromethyl)-1H-pyrazol-5-yl)phenyl)-4-(4-(1,3-thiazol-2-ylcarbonyl)piperazin-1-yl)pyrrolidin-2-one] |
| 91 | O=C(c1nccs1)N1CCN(C2CC(=O)N(c3ccccc3)C2)CC1 (stereo not shown) [Example 160, 1-phenyl-4-(4-(1,3-thiazol-2-ylcarbonyl)piperazin-1-yl)pyrrolidin-2-one] |
| 100 | Cc1nc(C)c(-c2cccc(N3CC(N4CCN(C(=O)c5nccs5)CC4)CC3=O)c2)s1 (stereo not shown) [Example 161, 1-(3-(2,4-dimethyl-1,3-thiazol-5-yl)phenyl)-4-(4-(1,3-thiazol-2-ylcarbonyl)piperazin-1-yl)pyrrolidin-2-one] |
| 99 | Cc1ccsc1-c1cccc(N2CC(N3CCN(C(=O)c4nccs4)CC3)CC2=O)c1 (stereo not shown) [Example 162, 1-(3-(3-methyl-2-thienyl)phenyl)-4-(4-(1,3-thiazol-2-ylcarbonyl)piperazin-1-yl)pyrrolidin-2-one] |
| 100 | O=C(c1nccs1)N1CCN(C2CC(=O)N(c3cccc(-c4ncccc4C(F)(F)F)c3)C2)CC1 (stereo not shown) [Example 165, 4-(4-(1,3-thiazol-2-ylcarbonyl)piperazin-1-yl)-1-(3-(3-(trifluoromethyl)pyridin-2-yl)phenyl)pyrrolidin-2-one] |
| 99 | O=C(c1ncco1)N1CCN(C2CC(=O)N(c3cccc(-c4ccccc4Cl)c3)C2)CC1 (stereo not shown) [Example 166, 1-(2′-chlorobiphenyl-3-yl)-4-(4-(1,3-oxazol-2-ylcarbonyl)piperazin-1-yl)pyrrolidin-2-one] |
| 94 | Cc1ncccc1-c1cccc(N2CC(N3CCN(C(=O)c4ncco4)CC3)CC2=O)c1 (stereo not shown) [Example 167, 1-(3-(2-methylpyridin-3-yl)phenyl)-4-(4-(1,3-oxazol-2-ylcarbonyl)piperazin-1-yl)pyrrolidin-2-one] |
| 101 | O=C(c1cscn1)N1CCN(C2CC(=O)N(c3cccc(-c4ccccc4Cl)c3)C2)CC1 (stereo not shown) [Example 168, 1-(2′-chlorobiphenyl-3-yl)-4-(4-(1,3-thiazol-4-ylcarbonyl)piperazin-1-yl)pyrrolidin-2-one] |
| 97 | Cc1ncccc1-c1cccc(N2CC(N3CCN(C(=O)c4cscn4)CC3)CC2=O)c1 (stereo not shown) [Example 169, 1-(3-(2-methylpyridin-3-yl)phenyl)-4-(4-(1,3-thiazol-4-ylcarbonyl)piperazin-1-yl)pyrrolidin-2-one] |
| 98 | O=C(c1nccs1)N1CCN(C2CC(=O)N(c3ccc(F)c(Br)c3)C2)CC1 (stereo not shown) [Example 170, 1-(3-bromo-4-fluorophenyl)-4-(4-(1,3-thiazol-2-ylcarbonyl)piperazin-1-yl)pyrrolidin-2-one] |
| 99 | CC(C)n1nccc1-c1cccc(N2CC(N3CCN(C(=O)c4nccs4)CC3)CC2=O)c1 (stereo not shown) [Example 171, 1-(3-(1-isopropyl-1H-pyrazol-5-yl)phenyl)-4-(4-(1,3-thiazol-2-ylcarbonyl)piperazin-1-yl)pyrrolidin-2-one] |
| 100 | Cc1ncccc1-c1cccc(N2CC(N3CCN(C(=O)c4nccs4)CC3)CC2=O)n1 (stereo not shown) [Example 174, 1-(2′-methyl-2,3′-bipyridin-6-yl)-4-(4-(1,3-thiazol-2-ylcarbonyl)piperazin-1-yl)pyrrolidin-2-one] |
| 100 | Cc1ccccc1-c1ccc(N2CC(N3CCN(C(=O)c4nccs4)CC3)CC2=O)cc1 (stereo not shown) [Example 176, 1-(2′-methylbiphenyl-4-yl)-4-(4-(1,3-thiazol-2-ylcarbonyl)piperazin-1-yl)pyrrolidin-2-one] |
| 80 | Cc1ccncc1-c1ccc(N2CC(N3CCN(C(=O)c4nccs4)CC3)CC2=O)cc1 (stereo not shown) [Example 177, 1-(4-(4-methylpyridin-3-yl)phenyl)-4-(4-(1,3-thiazol-2-ylcarbonyl)piperazin-1-yl)pyrrolidin-2-one] |
| 81 | Cc1cnccc1-c1ccc(N2CC(N3CCN(C(=O)c4nccs4)CC3)CC2=O)cc1 (stereo not shown) [Example 178, 1-(4-(3-methylpyridin-4-yl)phenyl)-4-(4-(1,3-thiazol-2-ylcarbonyl)piperazin-1-yl)pyrrolidin-2-one] |

Same assay, conditions: 10 μM test compound; substrate 2-arachidonylglycerol, arachidonic acid by RapidFire-mass spectrometry; 10 µM

| % inhibition at 10 μM [%] | SMILES |
| --- | --- |
| 83 | Cc1cccc(-c2cccc(N3CC(N4CCN(C(=O)c5nccs5)CC4)CC3=O)c2)n1 (stereo not shown) [Example 150, 1-(3-(6-Methylpyridin-2-yl)phenyl)-4-(4-(1,3-thiazol-2-ylcarbonyl)piperazin-1-yl)pyrrolidin-2-one] |

Same assay, conditions: MAGL inhibitory rate, test compound 10 μM, His-hMAGL, substrate 2-arachidonylglycerol, RapidFire-mass spectrometry

| inhibition at 10 µM [%] | SMILES |
| --- | --- |
| 98 | O=C(c1nccs1)N1CCN(C2CC(=O)N(c3ccc(-c4ccccc4F)cc3)C2)CC1 (stereo not shown) [Example 179, 1-(2′-fluorobiphenyl-4-yl)-4-(4-(1,3-thiazol-2-ylcarbonyl)piperazin-1-yl)pyrrolidin-2-one] |

Source: patent US9624170B2, “4-(piperrazin-1-yl)-pyrrolidin-2-one compounds as monoacylglycerol lipase (MAGL) inhibitors” (TAKEDA PHARMACEUTICAL COMPANY LIMITED, priority 2013, dated 2017)
